Reference: patent publication US20180147767A1, “METHODS OF EXTRUDING MULTILAYER FIBERS” (THE BOARD OF TRUSTEES OF UNIVERSITY OF ILLINOIS, priority 2015, published 2018)
pIC50: −log10 of the molar value.

Experiments:
[1] = test system: RAW 264.7 mouse macrophage cells and MDA-MB-231 human adenocarcinoma cells; experiment: Co-localization and migration of macrophages and tumor cells co-cultured in multilayer alginate fibers (CellTracker confocal imaging, Pearson correlation factor, Coloc2); assay type: cell-based; settings: for calculated correlation factor (Pearson): Day 4, drug at approximate IC50: 50 μM for ZA and Rac1, 50 nM for GEF; for migration and co-localization of macrophages with tumor cells: co-cultured fibers, four days of incubation, FIG. 6a
Description: Using CellTracker™-labeling and confocal fluorescence microscopy to quantify the co-localization of the tumor cells and macrophages in co-culture over time (FIG. 8). To calculate correlation factor, ImageJ Fiji with the Coloc2 plugin may be utilized. The images are split into separate channels for macrophages (a) and breast cancer (b) cells and despeckled to remove noise.

[2] = test system: RAW 264.7 mouse macrophage cells and MDA-MB-231 human adenocarcinoma cells; experiment: Macrophage to tumor cell volume ratio per fiber (3D stack counting); settings: Day 4, compared to the other samples
Description: CellTracker Green CM FDA dye and CellTracker CM-Dil dye (Life Technologies) were used to label RAW and 231 cells respectively according to manufacturer's instructions. Labeled 231 cells were dispersed in the alginate solution at a concentration of 5×10^6 cells/mL. Labeled RAW cells were dispersed in CaCl2 solution at a concentration of 4.5×10^7 cells/mL. After fiber generation, fibers were cut into approximately 20 mm sections and stored in 24-well cell culture plates containing media and pharmacological drugs. […] A vehicle control of 2% DMSO in cell culture media was also used. The cells were incubated at 37° C., 5% CO2 environment, with media changes every 2 days.

[3] = read-out: approximate IC50; cited from earlier work

Row | Compound | calculated correlation factor (Pearson) [1] | migration and co-localization of macrophages with tumor cells [1] | TC/Mϕ ratio [2] | calculated correlation factor (Pearson) ([1]; listed as inhibitor of Rac1) | inhibition of migration and co-localization (TC-Mϕ correlation compared to TC/Mϕ ratio) ([1]; FIG. 7b, straight and patterned fibers) | pIC50 [3]
1 | COc1cc2ncnc(Nc3ccc(F)c(Cl)c3)c2cc1OCCCN1CCOCC1 [GEF, Gefitinib] | decreases | distinct impairment of migration and co-localization |  |  |  | 
2 | Cc1ccc(NC(=O)c2cccc(OCc3c(C)noc3C)c2)cc1S(N)(=O)=O [RAC, Rac1 Inhibitor II] | decreases | distinct impairment of migration and co-localization | significantly higher | return to anti-correlation comparable to initial seeding (Day 0) | highest inhibition of migration and co-localization | ~4.30
